In ChEMBL document CHEMBL3885861, “Open TG-GATES”:

Organism: Rattus norvegicus
Assay: Open TG-GATES - Regimen: Single
Assay type: toxicity, organism-based, Sprague-Dawley
Parameters: regimen Single, gender Male, age 6 weeks
Conditions: in vivo, po, route gavage; for APTT / Bas / Eos / Fbg / Hb / Ht / Lym / MCH / MCHC / MCV / Mono / Neu / PT / Plat / Ret / WBC: tissue Blood; for KIDNEY_L / KIDNEY_R / KIDNEY_TOTAL: tissue Kidney; for LIVER: tissue Liver; for ALP / ALT / AST / BUN / CRE / DBIL / GLC / IP / K / LDH / Na / PL / RALB / TBIL / TC / TG / TP / gamma-GTP / Ca: tissue Plasma
[1] = 0 mg/kg, 3 h, dose level Control
[2] = 0 mg/kg, 6 h, dose level Control
[3] = 0 mg/kg, 9 h, dose level Control
[4] = 0 mg/kg, 24 h, dose level Control

Work on `CN(C)CCCN1c2ccccc2CCc2ccc(Cl)cc21` [CLOMIPRAMINE] yielded a TERMINAL_BW [1] of 213.4 g, an APTT [1] of 23.8 s and a Bas [1] of 0.4%. It also gave an Eos [1] of 0.8%, a Fbg [1] of 259.6 mg/dL and a Hb [1] of 13.8 g/dL. The Ht [1] was 42.8%, the Lym [1] was 77.4% and the MCH [1] was 21.4 pg. It also gave an MCHC [1] of 32.3%, an MCV [1] of 66.4 fL and a Mono [1] of 3.6%. It also gave a Neu [1] of 16.8%, a PT [1] of 13.6 s and a Plat [1] of 115.6 x10_4/uL. It also gave a Ret [1] of 8.2%, a WBC [1] of 86.3 x10_2/uL and a KIDNEY_L [1] of 1 g. The KIDNEY_R [1] was 1 g, the KIDNEY_TOTAL [1] was 1.9 g and the LIVER [1] was 9.4 g. It also gave an ALP [1] of 1695.8 IU/L, an ALT [1] of 43.8 IU/L and an AST [1] of 82.8 IU/L. It also gave a BUN [1] of 9.6 mg/dL, a CRE [1] of 0.2 mg/dL and a DBIL [1] of 0.006 mg/dL. The GLC [1] was 182.4 mg/dL, the IP [1] was 9.7 mg/dL and the K [1] was 4.2 meq/L. It also gave an LDH [1] of 98.4 IU/L, a Na [1] of 140.2 meq/L and a PL [1] of 140 mg/dL. It also gave an RALB [1] of 2.5 g/dL, a TBIL [1] of 0.074 mg/dL and a TC [1] of 75.4 mg/dL. The TG [1] was 54.2 mg/dL, the TP [1] was 5.2 g/dL and the gamma-GTP [1] was 1 IU/L. For the same compound, the TERMINAL_BW [2] was 213.9 g, the APTT [2] was 16.6 s and the Bas [2] was 0%. It also gave an Eos [2] of 0.8%, a Fbg [2] of 254.2 mg/dL and a Hb [2] of 13.7 g/dL. It also gave a Ht [2] of 42.3%, a Lym [2] of 76.2% and an MCH [2] of 21 pg. It also gave an MCHC [2] of 32.3%, an MCV [2] of 65.1 fL and a Mono [2] of 2.8%. The Neu [2] was 19.2%, the PT [2] was 13.9 s and the Plat [2] was 125.3 x10_4/uL. It also gave a Ret [2] of 8.3%, a WBC [2] of 83.4 x10_2/uL and a KIDNEY_L [2] of 1 g. The KIDNEY_R [2] was 1 g, the KIDNEY_TOTAL [2] was 2 g and the LIVER [2] was 9.4 g. It also gave an ALP [2] of 1630.4 IU/L, an ALT [2] of 38.6 IU/L and an AST [2] of 76.6 IU/L. The BUN [2] was 9.2 mg/dL, the CRE [2] was 0.2 mg/dL and the Ca [2] was 10.8 mg/dL. It also gave a DBIL [2] of 0.006 mg/dL, a GLC [2] of 178.2 mg/dL and an IP [2] of 9.8 mg/dL. For the same compound, the K [2] was 4.2 meq/L, the LDH [2] was 90 IU/L and the Na [2] was 140.4 meq/L. For the same compound, the PL [2] was 142.6 mg/dL, the RALB [2] was 2.6 g/dL and the TBIL [2] was 0.07 mg/dL. It also gave a TC [2] of 71.8 mg/dL, a TG [2] of 77.8 mg/dL and a TP [2] of 5.4 g/dL. The gamma-GTP [2] was 1 IU/L, the TERMINAL_BW [3] was 213.6 g and the APTT [3] was 16.7 s. It also gave a Bas [3] of 0.2%, an Eos [3] of 1% and a Fbg [3] of 245 mg/dL. The Hb [3] was 13.4 g/dL, the Ht [3] was 41% and the Lym [3] was 78.2%. For the same compound, the MCH [3] was 21 pg, the MCHC [3] was 32.6% and the MCV [3] was 64.4 fL. For the same compound, the Mono [3] was 1.6%, the Neu [3] was 18% and the PT [3] was 14 s. For the same compound, the Plat [3] was 133.7 x10_4/uL, the Ret [3] was 8.1% and the WBC [3] was 86.1 x10_2/uL. For the same compound, the KIDNEY_L [3] was 1 g, the KIDNEY_R [3] was 1 g and the KIDNEY_TOTAL [3] was 2 g. The LIVER [3] was 8.5 g, the ALP [3] was 1606 IU/L and the ALT [3] was 39.8 IU/L. It also gave an AST [3] of 79.8 IU/L, a BUN [3] of 9.8 mg/dL and a CRE [3] of 0.2 mg/dL. For the same compound, the DBIL [3] was 0.008 mg/dL, the GLC [3] was 181 mg/dL and the IP [3] was 10.1 mg/dL. It also gave a K [3] of 4 meq/L, an LDH [3] of 109.8 IU/L and a Na [3] of 140.6 meq/L. For the same compound, the PL [3] was 139.2 mg/dL, the RALB [3] was 2.4 g/dL and the TBIL [3] was 0.07 mg/dL. For the same compound, the TC [3] was 75.4 mg/dL, the TG [3] was 51.2 mg/dL and the TP [3] was 5.1 g/dL. It also gave a gamma-GTP [3] of 1 IU/L, a TERMINAL_BW [4] of 229.8 g and an APTT [4] of 18 s. The Bas [4] was 0%, the Eos [4] was 0.8% and the Fbg [4] was 257.8 mg/dL. The Hb [4] was 13.5 g/dL, the Ht [4] was 41.6% and the Lym [4] was 82.6%. For the same compound, the MCH [4] was 20.5 pg, the MCHC [4] was 32.4% and the MCV [4] was 63.4 fL. For the same compound, the Mono [4] was 2.8%, the Neu [4] was 12.6% and the PT [4] was 13.4 s. The Plat [4] was 129 x10_4/uL, the Ret [4] was 7.4% and the WBC [4] was 82.9 x10_2/uL. It also gave a KIDNEY_L [4] of 1 g, a KIDNEY_R [4] of 1 g and a KIDNEY_TOTAL [4] of 2.1 g. It also gave an LIVER [4] of 11 g, an ALP [4] of 1743.2 IU/L and an ALT [4] of 45.8 IU/L. It also gave an AST [4] of 73.4 IU/L, a BUN [4] of 14 mg/dL and a CRE [4] of 0.2 mg/dL. The Ca [4] was 10.9 mg/dL, the DBIL [4] was 0.01 mg/dL and the GLC [4] was 176.4 mg/dL. The IP [4] was 8.2 mg/dL, the K [4] was 4.1 meq/L and the LDH [4] was 80.2 IU/L. The Na [4] was 140.8 meq/L, the PL [4] was 161.6 mg/dL and the RALB [4] was 2.6 g/dL. For the same compound, the TBIL [4] was 0.062 mg/dL, the TC [4] was 83.2 mg/dL and the TP [4] was 5.5 g/dL. It also gave a gamma-GTP [4] of 1 IU/L and a TERMINAL_BW (10 mg/kg, 3 h, dose level Low) of 216.3 g.
